Source: ChEMBL document CHEMBL3351455, “Discovery of 2-(cyclopentylamino)thieno[3,2-d]pyrimidin-4(3H)-one derivatives as a new series of potent phosphodiesterase 7 inhibitors” (J Med Chem, 2014)

What was measured:
[1] = target: High affinity 3',5'-cyclic-AMP phosphodiesterase 7A (Homo sapiens, UniProt Q13946); test: Inhibition of human PDE7A1 expressed in insect cells assessed as inhibition of [3H]cAMP to [3H]AMP hydrolysis after 30 mins by scintillation counting
[2] = target: 3',5'-cyclic-AMP phosphodiesterase 4B (Homo sapiens, UniProt Q07343); test: Inhibition of human PDE4B1 expressed in insect cells assessed as inhibition of [3H]cAMP to [3H]AMP hydrolysis after 30 mins by scintillation counting
Sequence of 3',5'-cyclic-AMP phosphodiesterase 4B (Q07343 whole entry): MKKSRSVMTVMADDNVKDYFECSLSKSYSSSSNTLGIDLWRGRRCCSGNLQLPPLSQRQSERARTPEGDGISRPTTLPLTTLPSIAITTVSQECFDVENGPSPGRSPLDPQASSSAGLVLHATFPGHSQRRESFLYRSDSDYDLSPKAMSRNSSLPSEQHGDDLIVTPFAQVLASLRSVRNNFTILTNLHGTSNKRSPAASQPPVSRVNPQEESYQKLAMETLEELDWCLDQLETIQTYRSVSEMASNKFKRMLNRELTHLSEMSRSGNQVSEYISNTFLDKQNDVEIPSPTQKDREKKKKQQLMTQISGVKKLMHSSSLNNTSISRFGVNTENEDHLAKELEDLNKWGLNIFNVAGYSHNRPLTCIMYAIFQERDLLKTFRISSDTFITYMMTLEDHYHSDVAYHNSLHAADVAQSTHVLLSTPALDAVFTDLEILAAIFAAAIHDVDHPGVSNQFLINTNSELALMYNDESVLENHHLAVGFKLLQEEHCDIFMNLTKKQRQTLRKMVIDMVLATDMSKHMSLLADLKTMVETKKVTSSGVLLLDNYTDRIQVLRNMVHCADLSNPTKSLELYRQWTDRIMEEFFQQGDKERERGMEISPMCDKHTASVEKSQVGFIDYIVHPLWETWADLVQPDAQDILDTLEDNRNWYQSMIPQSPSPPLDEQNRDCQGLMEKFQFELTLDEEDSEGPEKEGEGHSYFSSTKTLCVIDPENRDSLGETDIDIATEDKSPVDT

Lymphocyte = test: Inhibition of IL2 production in activated mouse lymphocytes after 3 hrs by ELISA; assay type: functional, cell-based
Liver microsome [3] = test: Stability in rat liver microsomes; assay type: ADME
[4] = Permeability of the compound by PAMPA; assay type: ADME
Liver microsome [5] = test: Stability in human liver microsomes; assay type: ADME

Sequence of High affinity 3',5'-cyclic-AMP phosphodiesterase 7A (Q13946 whole entry): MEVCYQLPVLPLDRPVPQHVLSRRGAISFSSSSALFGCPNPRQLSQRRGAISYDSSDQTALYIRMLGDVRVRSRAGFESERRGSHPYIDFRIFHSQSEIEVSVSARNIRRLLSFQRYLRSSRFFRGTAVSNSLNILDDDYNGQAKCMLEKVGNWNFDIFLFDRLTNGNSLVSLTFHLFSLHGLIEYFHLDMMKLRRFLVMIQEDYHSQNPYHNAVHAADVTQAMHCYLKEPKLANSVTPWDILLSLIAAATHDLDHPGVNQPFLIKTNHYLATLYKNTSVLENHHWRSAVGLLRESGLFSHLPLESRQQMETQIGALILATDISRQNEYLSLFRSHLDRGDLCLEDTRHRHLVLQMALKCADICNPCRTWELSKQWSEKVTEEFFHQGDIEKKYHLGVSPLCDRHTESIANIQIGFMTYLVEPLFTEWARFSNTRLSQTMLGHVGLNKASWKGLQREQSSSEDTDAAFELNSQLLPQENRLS

Structure (SMILES)	IC50 [1]	IC50 [2]	IC50 (Lymphocyte)	Stability (Liver microsome [3])	permeability [4]	Stability (Liver microsome [5])
C=CCNc1nc2cc(-c3ccc(N4CCN(C(C)C)CC4)cc3)sc2c(=O)n1C	160 nM	–	–	–	–	–
C=CCNc1nc2cc(-c3cccc(C(=O)NCCO)c3)sc2c(=O)n1C	1100 nM	–	–	–	–	–
C=CCNc1nc2cc(-c3ccc(C(=O)NCCCN(C)C)cc3)sc2c(=O)n1C	310 nM	–	–	–	–	–
C=CCNc1nc2cc(-c3ccccc3)sc2c(=O)n1C	6800 nM	–	–	–	–	–
C=CCNc1nc2ccsc2c(=O)n1C	5000 nM	–	–	–	–	–
CCn1c(NC2CCCC2)nc2ccsc2c1=O	150 nM	4900 nM	5400 nM	–	–	–
CCn1c(NC2CCCCC2)nc2ccsc2c1=O	740 nM	–	–	–	–	–
CCn1c(NC2CCCC2)nc2cc(C)sc2c1=O	11000 nM	–	–	–	–	–
CCc1cc2nc(NC3CCCC3)n(CC)c(=O)c2s1	6500 nM	3500 nM	–	–	–	–
CCn1c(NC2CCCC2)nc2cc(CNc3cccnc3)sc2c1=O	> 1000 nM	920 nM	–	–	–	–
CCn1c(NC2CCCC2)nc2cc(C(=O)Nc3ccc(N4CCC(O)CC4)nc3)sc2c1=O	2600 nM	–	–	–	–	–
CCn1c(NC2CCCC2)nc2c(C)csc2c1=O	98 nM	3800 nM	> 3000 nM	–	–	–
CCc1csc2c(=O)n(CC)c(NC3CCCC3)nc12	42 nM	5900 nM	2900 nM	–	–	–
C=Cc1csc2c(=O)n(CC)c(NC3CCCC3)nc12	30 nM	3700 nM	980 nM	–	–	–
C#Cc1csc2c(=O)n(CC)c(NC3CCCC3)nc12	–	3000 nM	560 nM	–	–	–
CCn1c(NC2CCCC2)nc2c(C#N)csc2c1=O	67 nM	3200 nM	890 nM	–	–	–
CCn1c(NC2CCCC2)nc2c(C#Cc3cccnc3)csc2c1=O	4.2 nM	1400 nM	1300 nM	–	–	–
CCn1c(NC2CCCC2)nc2c(C#CCN3CCOCC3)csc2c1=O	19 nM	820 nM	1700 nM	–	–	–
CCn1c(NC2CCCC2)nc2c(CCc3cccnc3)csc2c1=O	7.3 nM	1100 nM	1000 nM	–	–	–
CCn1c(NC2CCCC2)nc2c(CCCN3CCOCC3)csc2c1=O	39 nM	3400 nM	2000 nM	–	–	–
CCn1c(NC2CCCC2)nc2c(-c3ccccc3)csc2c1=O	5.6 nM	720 nM	1800 nM	–	–	–
CCn1c(NC2CCCC2)nc2c(-c3ccccc3C(=O)OC)csc2c1=O	380 nM	3800 nM	9100 nM	–	–	–
CCn1c(NC2CCCC2)nc2c(-c3cccc(C(=O)OC)c3)csc2c1=O	5 nM	480 nM	290 nM	–	–	–
CCn1c(NC2CCCC2)nc2c(-c3ccc(C(=O)OC)cc3)csc2c1=O	4.9 nM	1000 nM	1300 nM	–	–	–
CCn1c(NC2CCCC2)nc2c(-c3cccnc3)csc2c1=O	2 nM	380 nM	89 nM	Unstable	permeable	Unstable
CCn1c(NC2CCCC2)nc2c(-c3ccc(CN4CCOCC4)cc3)csc2c1=O	2.3 nM	640 nM	1000 nM	Unstable	permeable	Unstable
CCn1c(NC2CCCC2)nc2c(-c3ccc(N4CCOCC4)nc3)csc2c1=O	–	520 nM	77 nM	Unstable	permeable	Unstable
CCn1c(NC2CCCC2)nc2c(N3CCN(C(=O)OC(C)(C)C)CC3=O)csc2c1=O	12 nM	3300 nM	3000 nM	–	–	–
